“Also recorded” adds a separate entry of the source.
Columns and labels:
COL1A1 = COL1A1 expression in LX-2 human hepatic stellate cells; type: cell-based; settings: LX-2 cells, Aramchol 10 mM, 24 hours, RNA
Experimental: (§1) LX2 cells (150.000 cells per well) were plated in DMEM media containing antibiotics, glutamine and bovine fetal serum. After 24 hours incubation, media was changed to 0% serum and incubated for an additional period of 16 hours. Then, Aramchol (10 mM) was added and 24 hours later RNA was extracted with Trizol.

PPAR-γ = PPAR-γ expression in LX-2 human hepatic stellate cells; type: cell-based; settings: LX-2 cells, Aramchol 10 mM, 24 hours, RNA
Experimental: as §1

[1] = test system: 0.1 MCD diet mouse model of NASH; experiment: 0.1% methionine- and choline-deficient (0.1 MCD) diet mouse model of NASH; type: in vivo, C57B1/6 mice; settings: 5 mg/Kg/day orally by gavage, 0.1 MCD-fed mice
Text: The study described below investigates the mechanism of action of Aramchol and its potential effect on fibrosis using the 0.1% methionine- and choline-deficient (0.1 MCD) diet mouse model of NASH.
C57B1/6 were fed the Methionine and Choline Deficient (MCD) and control diet and were sacrificed after 4 weeks. The MCD diet induces aminotransferase elevation and changes in hepatic histological features, characterized by steatosis, local inflammation, hepatocyte necrosis and fibrosis. These changes occur rapidly and are morphologically similar to those observed in human NASH. In this study the MCD diet contained 0.1% methionine to minimize and stabilize weight loss. At the end of the second week, after verification of established NASH, 0.1 MCD-fed mice were treated orally by gavage with Aramchol (5 mg/Kg/day) or vehicle (n=10, each condition). Control diet-fed mice were also treated with vehicle for same duration (n=10). At the end of the experiment, blood and liver samples were obtained. A diagram of the experimental design is shown below: […]

[2] = test system: LX-2 human hepatic stellate cells; experiment: Collagen production from LX-2 human hepatic stellate cells; type: cell-based; settings: LX-2 cells, relative to a DMSO control
[3] = test system: Thioacetamide (TAA)-Induced Fibrosis; experiment: Thioacetamide (TAA)-induced fibrosis, model for hepatic cirrhosis; type: in vivo; settings: 5 mg/kg co-administered with TAA, 10 weeks, Wistar rats
Experimental: Liver fibrosis was induces in Wistar rats by intraperitoneal injections of TAA […] body weight) twice per week during 10 weeks. I.p. application of TAA results in hepatic centrolobular necrosis, elevated transaminase activity and robust liver fibrosis. Treatment groups further included co-administration of Aramchol (1 or 5 mg/kg orally) or obaticholic acid (OCA, 5 mg/kg). A control group of saline-treated rats (in the absence of TAA administration) was further included. Rats were then sacrificed, and livers were observed macroscopically for signs of cirrhosis and necrotic lesions, and microscopically, following Masson Goldner staining. The fibrosis score, calculated at a scale of 0-4, was determined for each sample, wherein 0 indicates no fibrosis and 4 indicates advanced fibrosis and cirrhosis.

SMILES: CCCCCCCCCCCCCCCCCCCC(=O)N[C@H]1CCC2(C)C(CC(O)C3C2C[C@H](O)C2(C)C(C(C)CCC(=O)O)CCC32)C1 (stereo in doubt) [Aramchol, 3β-arachidylamido-7α, 12α-dihydroxy-5β-cholan-24-oic acid]
- COL1A1 expression (COL1A1): significantly reduced
- PPARγ expression (PPAR-γ): up-regulation
- FA(16:1)/FA(16:0) ratio [1]: marked decrease
- SCD1 activity [1]: reduced
- SCD1 expression [1]: marked decrease
- content of total oxFA including oxLA [1]: marked reduction
- hepatic content of diglycerides (DG) and TG [1]: reduction
- oxidative stress [1]: improved
- total content of monounsaturated FA (MUFA) [1]: marked decrease
- fibrosis in the liver (sirius red) ([1]; from end of week 2 to week 4): significantly down regulates/normalizes; also recorded: reduction
- infiltration and activation status of macrophages in the liver (F4/80 and CD64) ([1]; from end of week 2 to week 4): significantly down regulates/normalizes; also recorded: reduction
- steatosis in the liver (Sudan III) ([1]; from end of week 2 to week 4): significantly down regulates; also recorded: reduction
- GSH/GSSG ratio ([1]; liver): elevates; also recorded: normalization
- glutathione ([1]; liver): significantly up regulates
- collagen in the liver ([1]; liver extract): significantly down regulates
- collagen production [2]: significantly down regulates
- TAA induced fibrosis [3]: significantly prevented; also recorded: significantly inhibited
- collagen distribution in the tissue (FIG. 2) [3]: reduced significantly
- development of necrosis and cirrhosis (macroscopic, FIG. 1) [3]: reduced significantly; also recorded: significantly inhibited
- fibrotic score (Masson Goldner staining, scale 0-4, FIG. 2) [3]: reduced significantly
